# Measured values published in patent US20100137449A1, “SUBSTITUTED 1,3-CYCLOPENTADIONE MULTI-TARGET PROTEIN KINASE MODULATORS OF CANCER, ANGIOGENESIS AND THE INFLAMMATORY PATHWAYS ASSOCIATED THEREWITH” (METAPROTEOMICS, LLC, priority 2007, published 2010).
# Key:
# Assay in all cases: KinaseProfiler Assay
# [1] = target: Rsk1(h) (Homo sapiens, UniProt Q15418)
# [2] = target: Ret(V804L)(h) (Homo sapiens, UniProt P07949, V804L)
# [3] = target: PDGFRα(D842V)(h) (Homo sapiens, UniProt P16234, D842V)
# Chain of PDGFRα(D842V)(h) (P16234 24-1089 D842V): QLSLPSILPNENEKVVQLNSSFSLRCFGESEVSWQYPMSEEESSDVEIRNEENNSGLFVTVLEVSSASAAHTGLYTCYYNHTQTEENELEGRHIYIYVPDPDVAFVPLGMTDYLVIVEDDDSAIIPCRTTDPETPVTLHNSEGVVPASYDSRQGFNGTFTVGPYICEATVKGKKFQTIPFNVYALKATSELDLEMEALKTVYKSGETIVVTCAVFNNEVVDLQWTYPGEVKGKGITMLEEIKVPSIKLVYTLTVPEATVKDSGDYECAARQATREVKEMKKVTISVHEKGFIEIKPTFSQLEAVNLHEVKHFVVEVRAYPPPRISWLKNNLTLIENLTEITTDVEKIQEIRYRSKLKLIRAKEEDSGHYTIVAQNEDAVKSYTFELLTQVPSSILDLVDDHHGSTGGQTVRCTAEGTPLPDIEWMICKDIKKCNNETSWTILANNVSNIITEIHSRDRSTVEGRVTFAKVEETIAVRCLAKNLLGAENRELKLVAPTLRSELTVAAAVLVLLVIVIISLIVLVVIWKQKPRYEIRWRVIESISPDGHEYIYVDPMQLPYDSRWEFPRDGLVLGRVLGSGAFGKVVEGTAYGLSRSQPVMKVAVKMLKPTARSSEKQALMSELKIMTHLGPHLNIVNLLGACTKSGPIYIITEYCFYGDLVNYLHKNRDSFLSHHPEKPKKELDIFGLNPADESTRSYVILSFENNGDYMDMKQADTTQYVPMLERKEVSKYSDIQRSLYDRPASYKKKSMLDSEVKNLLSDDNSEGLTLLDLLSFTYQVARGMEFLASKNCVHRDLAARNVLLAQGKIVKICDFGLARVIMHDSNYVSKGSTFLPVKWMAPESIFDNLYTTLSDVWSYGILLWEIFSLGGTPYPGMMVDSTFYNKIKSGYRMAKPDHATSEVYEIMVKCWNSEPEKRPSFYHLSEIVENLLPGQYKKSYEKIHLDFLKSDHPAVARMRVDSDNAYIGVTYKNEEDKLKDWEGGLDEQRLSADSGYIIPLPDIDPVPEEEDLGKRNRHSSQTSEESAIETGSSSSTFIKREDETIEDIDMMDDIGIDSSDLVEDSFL
# [4] = target: T1, GRK7(h) (Homo sapiens, UniProt Q8WTQ7)
# T1 sequence (Q8WTQ7 1-553): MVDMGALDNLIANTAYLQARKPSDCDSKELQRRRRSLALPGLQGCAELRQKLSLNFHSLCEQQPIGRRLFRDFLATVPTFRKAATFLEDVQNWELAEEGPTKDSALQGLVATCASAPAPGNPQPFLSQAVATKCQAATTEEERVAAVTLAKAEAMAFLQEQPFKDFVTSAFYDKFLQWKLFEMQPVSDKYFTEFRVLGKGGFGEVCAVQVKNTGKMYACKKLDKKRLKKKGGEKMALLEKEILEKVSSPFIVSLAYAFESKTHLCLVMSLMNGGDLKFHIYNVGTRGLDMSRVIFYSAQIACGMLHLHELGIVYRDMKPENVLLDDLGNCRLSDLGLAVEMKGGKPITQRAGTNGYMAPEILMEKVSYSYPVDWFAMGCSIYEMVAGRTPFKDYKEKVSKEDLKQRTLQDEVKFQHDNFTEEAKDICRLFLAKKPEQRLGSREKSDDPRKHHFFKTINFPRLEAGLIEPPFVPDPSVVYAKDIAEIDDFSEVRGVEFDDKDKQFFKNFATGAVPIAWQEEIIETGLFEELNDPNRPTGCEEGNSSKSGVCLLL
# [5] = target: Syk(h) (Homo sapiens, UniProt P43405)
# [6] = target: CHK2(R145W)(h) (Homo sapiens, UniProt O96017, R145W)
# Chain of CHK2(R145W)(h) (O96017 whole entry R145W): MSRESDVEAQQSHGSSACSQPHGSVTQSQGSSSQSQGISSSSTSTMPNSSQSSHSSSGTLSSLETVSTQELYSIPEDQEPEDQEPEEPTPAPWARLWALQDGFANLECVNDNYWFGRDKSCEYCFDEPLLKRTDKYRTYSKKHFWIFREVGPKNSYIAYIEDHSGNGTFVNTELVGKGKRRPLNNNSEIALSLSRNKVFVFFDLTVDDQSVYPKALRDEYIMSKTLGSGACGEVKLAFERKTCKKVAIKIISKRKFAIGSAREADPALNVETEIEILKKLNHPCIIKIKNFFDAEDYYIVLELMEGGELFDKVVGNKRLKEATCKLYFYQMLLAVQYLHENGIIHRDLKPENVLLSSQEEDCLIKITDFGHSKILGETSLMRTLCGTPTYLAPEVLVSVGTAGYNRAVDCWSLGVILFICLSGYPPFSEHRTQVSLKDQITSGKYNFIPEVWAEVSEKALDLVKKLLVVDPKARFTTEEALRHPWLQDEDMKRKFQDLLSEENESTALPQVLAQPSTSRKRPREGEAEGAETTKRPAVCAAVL
# [7] = target: PTK5(h) (Homo sapiens, UniProt P42685)
# Chain of PTK5(h) (P42685 whole entry): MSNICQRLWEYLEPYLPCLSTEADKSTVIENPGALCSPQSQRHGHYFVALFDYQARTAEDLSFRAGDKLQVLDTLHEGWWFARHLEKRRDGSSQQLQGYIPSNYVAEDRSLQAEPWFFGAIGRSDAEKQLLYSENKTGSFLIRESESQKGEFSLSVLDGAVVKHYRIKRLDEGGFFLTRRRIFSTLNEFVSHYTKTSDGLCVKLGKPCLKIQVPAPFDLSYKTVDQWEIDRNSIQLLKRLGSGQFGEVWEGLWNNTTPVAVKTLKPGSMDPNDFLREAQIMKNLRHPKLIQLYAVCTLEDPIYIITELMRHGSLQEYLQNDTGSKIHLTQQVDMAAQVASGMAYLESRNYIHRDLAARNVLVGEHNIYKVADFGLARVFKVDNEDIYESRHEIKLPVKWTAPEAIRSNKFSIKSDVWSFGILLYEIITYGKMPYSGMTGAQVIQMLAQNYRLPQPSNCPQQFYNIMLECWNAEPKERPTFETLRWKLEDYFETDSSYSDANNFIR
# [8] = target: TrkB(h) (Homo sapiens, UniProt Q16620)
# Chain of TrkB(h) (Q16620 32-822): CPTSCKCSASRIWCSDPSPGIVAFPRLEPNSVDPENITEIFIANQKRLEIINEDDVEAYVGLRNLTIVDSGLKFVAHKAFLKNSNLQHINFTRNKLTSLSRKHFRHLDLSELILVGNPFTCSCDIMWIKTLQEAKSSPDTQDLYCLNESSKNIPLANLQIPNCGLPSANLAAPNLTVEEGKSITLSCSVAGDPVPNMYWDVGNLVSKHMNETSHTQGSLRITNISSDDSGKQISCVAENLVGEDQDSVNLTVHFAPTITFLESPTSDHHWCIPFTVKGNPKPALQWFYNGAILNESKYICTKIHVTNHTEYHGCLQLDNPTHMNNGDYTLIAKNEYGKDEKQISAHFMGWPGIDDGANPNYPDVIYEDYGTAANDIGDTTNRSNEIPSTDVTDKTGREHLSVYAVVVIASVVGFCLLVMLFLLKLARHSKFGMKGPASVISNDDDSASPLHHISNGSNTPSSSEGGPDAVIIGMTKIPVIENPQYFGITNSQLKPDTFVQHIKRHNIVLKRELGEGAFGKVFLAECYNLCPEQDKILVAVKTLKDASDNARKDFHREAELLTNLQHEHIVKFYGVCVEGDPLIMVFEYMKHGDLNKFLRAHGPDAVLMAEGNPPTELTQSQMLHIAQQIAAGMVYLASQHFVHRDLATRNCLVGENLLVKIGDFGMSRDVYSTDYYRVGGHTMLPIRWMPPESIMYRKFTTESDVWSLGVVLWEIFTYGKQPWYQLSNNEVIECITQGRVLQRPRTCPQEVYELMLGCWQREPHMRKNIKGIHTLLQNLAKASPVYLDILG
# [9] = target: Tie2(Y897S)(h) (Homo sapiens, UniProt Q02763, Y897S)
# [10] = target: T2, Axl(h) (Homo sapiens, UniProt P30530)
# T2 sequence (P30530 26-894): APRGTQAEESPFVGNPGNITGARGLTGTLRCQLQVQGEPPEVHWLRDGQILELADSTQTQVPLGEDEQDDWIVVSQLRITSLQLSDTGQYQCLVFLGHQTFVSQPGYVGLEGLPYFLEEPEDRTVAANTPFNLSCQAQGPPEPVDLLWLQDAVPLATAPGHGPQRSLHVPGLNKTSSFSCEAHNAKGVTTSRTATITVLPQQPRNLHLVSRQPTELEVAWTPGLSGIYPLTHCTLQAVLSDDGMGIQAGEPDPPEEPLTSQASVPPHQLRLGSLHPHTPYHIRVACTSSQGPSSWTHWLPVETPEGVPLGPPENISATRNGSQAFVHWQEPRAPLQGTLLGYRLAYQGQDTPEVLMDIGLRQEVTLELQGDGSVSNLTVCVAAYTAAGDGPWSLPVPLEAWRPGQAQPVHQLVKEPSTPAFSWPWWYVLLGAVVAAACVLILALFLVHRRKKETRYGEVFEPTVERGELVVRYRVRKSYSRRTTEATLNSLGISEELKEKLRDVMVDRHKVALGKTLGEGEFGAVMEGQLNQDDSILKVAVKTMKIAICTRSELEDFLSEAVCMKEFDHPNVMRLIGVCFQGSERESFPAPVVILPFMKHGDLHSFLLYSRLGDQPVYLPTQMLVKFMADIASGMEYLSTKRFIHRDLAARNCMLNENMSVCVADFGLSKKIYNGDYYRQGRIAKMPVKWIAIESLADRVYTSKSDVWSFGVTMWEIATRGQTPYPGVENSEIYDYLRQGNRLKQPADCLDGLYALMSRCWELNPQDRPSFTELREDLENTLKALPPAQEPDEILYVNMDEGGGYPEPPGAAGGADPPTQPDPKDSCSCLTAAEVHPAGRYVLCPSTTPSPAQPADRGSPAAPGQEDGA
# [11] = target: HIPK2(h) (Homo sapiens, UniProt Q9H2X6)
# Chain of Ret(V804L)(h) (P07949 29-1114 V804L): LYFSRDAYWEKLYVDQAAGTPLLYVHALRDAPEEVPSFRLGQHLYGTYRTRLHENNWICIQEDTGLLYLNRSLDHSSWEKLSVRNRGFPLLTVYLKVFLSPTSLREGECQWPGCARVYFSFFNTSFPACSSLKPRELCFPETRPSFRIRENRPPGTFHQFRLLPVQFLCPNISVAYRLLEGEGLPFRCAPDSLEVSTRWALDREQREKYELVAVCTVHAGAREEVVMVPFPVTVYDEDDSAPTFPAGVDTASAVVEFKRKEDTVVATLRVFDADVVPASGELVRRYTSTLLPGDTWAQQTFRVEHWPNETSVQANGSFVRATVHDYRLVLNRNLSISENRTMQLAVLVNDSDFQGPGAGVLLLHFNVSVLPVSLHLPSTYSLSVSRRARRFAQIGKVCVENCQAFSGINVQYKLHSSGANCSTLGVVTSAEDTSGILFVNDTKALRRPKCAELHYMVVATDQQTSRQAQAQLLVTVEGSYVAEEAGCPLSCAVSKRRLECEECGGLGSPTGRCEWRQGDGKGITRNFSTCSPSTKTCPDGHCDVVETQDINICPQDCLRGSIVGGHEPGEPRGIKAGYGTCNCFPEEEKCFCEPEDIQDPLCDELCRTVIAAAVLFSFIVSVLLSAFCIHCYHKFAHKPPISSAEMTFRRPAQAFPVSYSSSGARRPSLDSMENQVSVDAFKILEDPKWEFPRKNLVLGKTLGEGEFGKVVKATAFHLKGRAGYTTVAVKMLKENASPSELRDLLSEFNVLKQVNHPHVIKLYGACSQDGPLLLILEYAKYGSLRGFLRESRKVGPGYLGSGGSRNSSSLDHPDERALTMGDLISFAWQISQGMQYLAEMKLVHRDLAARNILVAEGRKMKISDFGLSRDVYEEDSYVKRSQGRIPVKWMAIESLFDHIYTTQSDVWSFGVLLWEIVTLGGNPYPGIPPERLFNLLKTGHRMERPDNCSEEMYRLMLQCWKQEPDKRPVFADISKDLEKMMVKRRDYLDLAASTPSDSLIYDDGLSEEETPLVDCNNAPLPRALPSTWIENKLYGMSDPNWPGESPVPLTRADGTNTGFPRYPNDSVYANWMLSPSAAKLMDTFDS
# Chain of Rsk1(h) (Q15418 whole entry): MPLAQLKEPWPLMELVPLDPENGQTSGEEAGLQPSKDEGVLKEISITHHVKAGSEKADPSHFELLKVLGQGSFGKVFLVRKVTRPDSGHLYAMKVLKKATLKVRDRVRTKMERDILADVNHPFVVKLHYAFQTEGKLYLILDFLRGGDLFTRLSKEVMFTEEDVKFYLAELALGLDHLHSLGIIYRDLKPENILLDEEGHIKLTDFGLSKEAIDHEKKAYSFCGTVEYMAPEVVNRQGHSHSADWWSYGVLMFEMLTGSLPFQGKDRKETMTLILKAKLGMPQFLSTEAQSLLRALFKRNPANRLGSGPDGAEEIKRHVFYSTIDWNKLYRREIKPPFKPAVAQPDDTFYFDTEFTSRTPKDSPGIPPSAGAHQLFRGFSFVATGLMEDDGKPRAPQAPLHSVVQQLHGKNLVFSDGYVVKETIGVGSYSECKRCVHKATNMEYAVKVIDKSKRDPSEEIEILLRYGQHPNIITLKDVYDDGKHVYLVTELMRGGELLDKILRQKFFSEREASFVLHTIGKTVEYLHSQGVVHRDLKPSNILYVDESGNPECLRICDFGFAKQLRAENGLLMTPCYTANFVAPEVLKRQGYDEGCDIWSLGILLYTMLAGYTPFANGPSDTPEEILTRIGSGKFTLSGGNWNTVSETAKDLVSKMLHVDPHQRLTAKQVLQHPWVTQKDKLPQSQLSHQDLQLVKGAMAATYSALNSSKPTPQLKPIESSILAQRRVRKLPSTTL
smiles,measurement,setting,value
"CC(C)CCC(=O)[C@]1(O)C(O)=C(C(=O)C(C)C)C(=O)[C@H]1CCC(C)C [TH2, tetrahydroiso-cohumulone]",kinase inhibition,[1]; 1 μg/ml,97% of control
same,kinase inhibition,[1]; 5 μg/ml,95% of control
same,kinase inhibition,[1]; 25 μg/ml,65% of control
same,kinase inhibition,[1]; 50 μg/ml,53% of control
same,kinase inhibition,[1]; 100 μg/ml,32% of control
same,kinase inhibition,[2]; 1 μg/ml,110% of control
same,kinase inhibition,[2]; 5 μg/ml,103% of control
same,kinase inhibition,[2]; 25 μg/ml,91% of control
same,kinase inhibition,[2]; 50 μg/ml,81% of control
same,kinase inhibition,[2]; 100 μg/ml,60% of control
same,kinase inhibition,[3]; 1 μg/ml,113% of control
same,kinase inhibition,[3]; 5 μg/ml,124% of control
same,kinase inhibition,[3]; 25 μg/ml,128% of control
same,kinase inhibition,[3]; 50 μg/ml,129% of control
same,kinase inhibition,[3]; 100 μg/ml,127% of control
same,kinase inhibition,[4]; 1 μg/ml,110% of control
same,kinase inhibition,[4]; 5 μg/ml,95% of control
same,kinase inhibition,[4]; 25 μg/ml,102% of control
same,kinase inhibition,[4]; 50 μg/ml,91% of control
same,kinase inhibition,[4]; 100 μg/ml,99% of control
same,kinase inhibition,[5]; 1 μg/ml,135% of control
same,kinase inhibition,[5]; 5 μg/ml,120% of control
same,kinase inhibition,[5]; 25 μg/ml,63% of control
same,kinase inhibition,[5]; 50 μg/ml,37% of control
same,kinase inhibition,[5]; 100 μg/ml,47% of control
same,kinase inhibition,[6]; 1 μg/ml,110% of control
same,kinase inhibition,[6]; 5 μg/ml,112% of control
same,kinase inhibition,[6]; 25 μg/ml,99% of control
same,kinase inhibition,[6]; 50 μg/ml,86% of control
same,kinase inhibition,[6]; 100 μg/ml,80% of control
same,kinase inhibition,[7]; 1 μg/ml,116% of control
same,kinase inhibition,[7]; 5 μg/ml,105% of control
same,kinase inhibition,[7]; 25 μg/ml,113% of control
same,kinase inhibition,[7]; 50 μg/ml,112% of control
same,kinase inhibition,[7]; 100 μg/ml,116% of control
same,kinase inhibition,[8]; 1 μg/ml,136% of control
same,kinase inhibition,[8]; 5 μg/ml,132% of control
same,kinase inhibition,[8]; 25 μg/ml,144% of control
same,kinase inhibition,[8]; 50 μg/ml,118% of control
same,kinase inhibition,[8]; 100 μg/ml,78% of control
same,kinase inhibition,[9]; 1 μg/ml,82% of control
same,kinase inhibition,[9]; 5 μg/ml,46% of control
same,kinase inhibition,[9]; 25 μg/ml,27% of control
same,kinase inhibition,[9]; 50 μg/ml,35% of control
same,kinase inhibition,[9]; 100 μg/ml,32% of control
same,kinase inhibition,[10]; 1 μg/ml,106% of control
same,kinase inhibition,[10]; 5 μg/ml,110% of control
same,kinase inhibition,[10]; 25 μg/ml,100% of control
same,kinase inhibition,[10]; 50 μg/ml,86% of control
same,kinase inhibition,[10]; 100 μg/ml,65% of control
same,kinase inhibition,[11]; 1 μg/ml,120% of control
same,kinase inhibition,[11]; 5 μg/ml,111% of control
same,kinase inhibition,[11]; 25 μg/ml,115% of control
same,kinase inhibition,[11]; 50 μg/ml,110% of control
same,kinase inhibition,[11]; 100 μg/ml,97% of control
